# Reference: BindingDB's records for doi:10.1021/acs.jmedchem.6b01507 (East China University of Science and Technology, 2017)
# Molecular target: T1, Leukotriene A-4 hydrolase (Homo sapiens, UniProt P09960)
# T1 sequence (P09960 whole entry): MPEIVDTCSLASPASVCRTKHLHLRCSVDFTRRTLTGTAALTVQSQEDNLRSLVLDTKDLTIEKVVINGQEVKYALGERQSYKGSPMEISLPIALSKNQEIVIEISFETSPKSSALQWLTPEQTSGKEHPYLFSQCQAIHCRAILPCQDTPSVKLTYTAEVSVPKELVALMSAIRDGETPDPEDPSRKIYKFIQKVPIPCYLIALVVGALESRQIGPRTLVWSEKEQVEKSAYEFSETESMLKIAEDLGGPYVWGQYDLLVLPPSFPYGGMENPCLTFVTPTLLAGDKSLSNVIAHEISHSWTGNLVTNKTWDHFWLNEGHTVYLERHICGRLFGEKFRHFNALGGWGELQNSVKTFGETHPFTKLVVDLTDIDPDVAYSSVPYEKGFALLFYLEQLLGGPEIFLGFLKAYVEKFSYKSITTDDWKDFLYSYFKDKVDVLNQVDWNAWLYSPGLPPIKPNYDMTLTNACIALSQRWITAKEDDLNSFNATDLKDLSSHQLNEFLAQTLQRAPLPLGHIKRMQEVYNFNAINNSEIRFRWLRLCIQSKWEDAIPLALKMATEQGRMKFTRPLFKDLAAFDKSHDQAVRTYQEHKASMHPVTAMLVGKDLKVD
# Assay: Inhibition of recombinant human LTA4H Epoxide Hydrolase expressed in Escherichia coli BL21 (DE3) pLysS preincubated for 10 mins followed by addition of LTA4 as substrate measured after 15 mins by reverse-phase HPLC analysis
compound,measurement,value
CN(C)Cc1cccc(S(=O)(=O)n2ccc(/C=C/C(=O)NO)c2)c1,IC50,> 10 µM
